According to patent US7351747B2, “Skin treatment for relief of itch” (priority 2003, dated 2008):

Tested on: skin itch
Test: Topical application of chlorhydrate composition to individuals with skin itch
Assay type: in vivo, human
Procedure: Three individuals, each complaining of skin itch of undetermined origin, were treated as follows. A composition was prepared at a concentration of aluminum chlorhydrate of about 10 to about 20 weight percent in water and further including a small quantity of a quaternary ammonium compound as a preservative.
An adult individual has applied 30% wt. of aluminum chlorhydrate in a topical cream to an area of the forearm experiencing itch.
An adult complains of itch on their legs.
An adult complaining of itch on their forearms and legs applies an ointment composition including 25% wt. of aluminum zirconium chlorhydrate to the affected areas.
An aqueous composition comprising aluminum chlorhydrate at a concentration of about 20 weight percent is applied to a synthetic fabric wipe and sealed in a tear-open pouch. Subsequently, an adult experiencing itch on their forearms tears open the pouch and wipes the area of the skin with the moist wipe; the wipe and pouch are discarded after use.

[1] = adult male, forearms and legs, ointment composition including 25% wt.
[2] = adult female, legs, 30% wt. in a lotion
[3] = adult male, forearms, aqueous composition about 20 weight percent on synthetic fabric wipe

Substance	duration of relief of itch [1]	time to relief of itch [1]	duration of relief of itch [2]	time to relief of itch [2]	relief of skin itch (adult individual, forearm, 30% wt. in a topical cream, no other active agent)	duration of relief from itching [3]	time to relief from itching [3]	time to relief from itching (three adults (one male, two female), skin itch of undetermined origin, about 10 to about 20 weight percent in water with quaternary ammonium preservative, pump spray)	duration of relief from itching (three adults, skin itch of undetermined origin, about 10 to about 20 weight percent in water, pump spray)	adverse side effects (three adults, about 10 to about 20 weight percent in water, pump spray to itching skin)
aluminum zirconium chlorhydrate	about 24 hours	within minutes	–	–	–	–	–	–	–	–
aluminum chlorhydrate	–	–	about 24 hours	within a few minutes	relieves the skin itch	about a day	within minutes	within a few minutes	about one day	No adverse side effects were reported
